Test results published in patent US9018226B2, “Antipsychotic agents and standardized antipsychotic fractions from Rauwolfia tetraphylla and process of their isolation” (Council of Scientific & Industrial Research, priority 2009, dated 2015).

Tests used:
[1] = system: amphetamine induced hyperactive mouse model; assay: amphetamine induced hyperactivity mouse model; assay type: in vivo, Swiss mice; settings: for in-vivo antipsychotic activity, in words: mouse
Description: (§1) The above fractions were evaluated for their antipsychotic activity. In order to assess the antipsychotic potential of MeOH extract, its various fractions, alkaloids isolated and their derivatives from Rauwolfia tetraphylla leaf, amphetamine induced hyper activity mouse model was used following the method of Szewczak et al (1987). Adult Swiss mice of either sex (25±2 g body weight) obtained from the Indian Institute of Toxicology Research (IITR), Lucknow, India animal-breeding colony were used throughout the experiment. The animals were housed in plastic polypropylene cages under standard animal house conditions with a 12 hours light/dark cycle and temperature of 25±2° C. The animals had adlibitum access to drinking water and pellet diet (Hindustan Lever Laboratory Animal Feed, Kolkata, India). The Animal Care and Ethics Committee of IITR approved all experimental protocols applied to animals.
Mice were injected with amphetamine (5 mg/kg, i.p.) 60 minutes after oral treatment with respective extract in each group.
as §1, with “In” for “The above fractions were evaluated for their antipsychotic activity. In”
The mice randomly grouped in batches of seven animals per group. The basal motor activity (distance traveled) of each mouse was recorded individually using automated activity monitor (TSE, Germany). After basal activity recording, a group of seven animals were challenged with amphetamine [[…], intra peritoneal (i.p) dissolved in normal saline]. After 30 min. amphetamine injection, motor activity was recorded for individual animal for 5 min.
The difference in motor activity as indicated by distance traveled in animals with amphetamine alone treated and animals with samples plus amphetamine challenge was recorded as inhibition in hyperactivity caused by amphetamine and the data presented as percent inhibition in amphetamine induced hyperactivity.

alpha-2 adrenoceptors = settings: in vivo; cited from earlier work
alpha-2 adrenoceptor = settings: rats and mice; cited from earlier work

Q: Which Distance traveled ([1]; amphetamine alone, 5 mg/Kg i.p.) does the source give for `CC(N)Cc1ccccc1` (stereo not shown) [Amphetamine] here?
A: 6064 cm

Q: For `COC(=O)[C@H]1[C@H]2C[C@H]3c4[nH]c5ccccc5c4CCN3C[C@H]2CC[C@@H]1O` [Compound K001, 17α-hydroxy-20α-yohimban-16β-carboxylic acid methyl ester], which “inhibition in amphetamine induced hyperactivity mice model” value ([1]; 6.25 mg/Kg) is on record?
A: > 60%

Q: What about the “in-vivo antipsychotic activity, in words” value [1] of the same compound?
A: significant in-vivo antipsychotic activity at lower doses

Q: And the “in-vivo antipsychotic activity, in words” value ([1]; listed as α-yohimbine (K001))?
A: more active even at lower doses

Q: What about the “alpha-2 adrenoceptor selectivity relative to RS 21361” value (alpha-2 adrenoceptors) of the same compound?
A: ~2 times

Q: What about the “alpha-2 adrenoceptor selectivity relative to RX 781094” value (alpha-2 adrenoceptors) of the same compound?
A: about 25 times

Q: With `c1ccc2c(c1)OCC(C1=NCCN1)O2` (stereo not shown) [RX 781094] as the compound, how does the “effectiveness relative to α-yohimbine in antagonizing clonidine hypotension and sedation” value (alpha-2 adrenoceptor) read?
A: approximately 3 times

Q: For `COC(=O)[C@H]1[C@H]2C[C@@H]3c4[nH]c5cc(OC)ccc5c4CCN3C[C@H]2C[C@@H](OC(=O)c2cc(OC)c(OC)c(OC)c2)[C@@H]1OC` [Reserpine], which “Anti-psychotic activity (% inhibition in amphetamine induced hyperactivity)” value ([1]; dose 5 mg/Kg) is on record?
A: 34%

Q: What about the Distance traveled ([1]; dose 5 mg/Kg, amphetamine 5 mg/kg i.p. 60 minutes later) of the same compound?
A: 4002 cm

Q: And the Distance traveled ([1]; dose […], amphetamine 5 mg/kg i.p. 60 minutes later)?
A: 5093 cm
